What is called IC50 is the concentration that inhibits the measured activity by half. The EC50 is the concentration needed to bring the measured effect to its halfway point.

In assay [1] the target is T1, human TLR4 (Homo sapiens, UniProt O00206+Q9Y6Y9). Nature of the assay: Inhibition curves (IC50 format): antagonist diluted in a fixed concentration of reference agonist, human TLR4 HEK-Blue SEAP. The assay is classed as cell-based. Also on record: host or cells: HEK-Blue (HEK293-derived) reporter cells. The note with it: for inhibition of PHAD stimulation: fixed PHAD 1 μM, 22 h. On the procedure:
(§1) SEAP assays were performed to evaluate the extent to which TLR4 signaling was activated in HEK-Blue reporter cells expressing mouse or human receptors (CD14, MD2 and TLR4). Reporter cells were harvested when 70–80% confluent and plated in 96-well, flat-bottom microtiter plates either 1 h, one day or two days (5 × 10^4, 4 × 10^4 or 2 × 10^4 cells/well, respectively) before addition of TLR4 agonists for 18–24 h. Culture supernatants were transferred to U-bottom microtiter plates, centrifuged and transferred again to microtiter plates to ensure reporter cells were not present. The culture supernatants were added to QUANTI-BLUE substrate following instructions provided by the manufacturer (InvivoGen cat. nos. rep-qbl or rep-qbs) and incubated at 37°C in a tissue culture incubator. At successive intervals beginning 10 min after mixing the supernatants and substrate, the plates were placed in an Emax plate reader (Molecular Devices LLC) and optical density was measured at visible light wavelength […] (OD650). The shortest incubations at which dose response curve fits produced maximal R^2 ‘goodness of fit’ values, as determined by GraphPad Prism software, were used for analysis.
(§2) Pharmacological profiles of the TLR4 reagents were generated by performing dose response curves in one of four formats. 1) Agonist potency and efficacy (EC50 and height of dose plateau, respectively) were measured by diluting TLR4 reagents successively in complete culture medium [DMEM or RPMI supplemented with fetal bovine serum (FBS) or RPMI supplemented with human serum, depending on cell-type]. Half-log step dilutions were performed in 96-well, U-bottom microtiter plates using a multichannel pipette to transfer and mix the suspensions, with fresh tips used for each dilution step. One-tenth (20 μl) volumes from wells of the dilution plate were then transferred to wells containing cells that had been plated in nine-tenth volumes (180 μl) of culture medium. 2) Mixed agonist–antagonist potency and efficacy were measured by mixing a TLR4 agonist with a candidate antagonist at a fixed ratio and then performing half-log step dilutions before treating HEK reporter cells. Analysis of values obtained from SEAP assays of culture supernatants was then performed as described for preparations containing agonist alone, above. 3) Competitive vs allosteric or non-competitive antagonist type was evaluated by diluting a reference agonist within a fixed concentration of a candidate inhibitor in half-log steps, treating HEK reporter cells, performing SEAP assays and then analyzing the data as described for agonist assays, above. Competitive antagonists are characterized by values that reach the same dose plateau as for a reference, full agonist, while shifting potency to higher EC50 values. […] 4) Inhibitory potency (IC50) was measured by diluting antagonists within a fixed concentration of a reference agonist, treating HEK reporter cells and performing SEAP assays as described.

For assay [2], the target named is T1, human TLR4. Nature of the assay: SEAP assay, agonist dose response in human TLR4 HEK-Blue reporter cells. The assay is classed as cell-based. Also on record: host or cells: HEK-Blue (HEK293-derived) reporter cells. The note with it: for agonist profile / EC50: human TLR4 HEK-Blue reporter cells; for EC50: read-out: EC50 for stimulation. Here is the method: (§3) Human and mouse HEK-Blue reporter cells express human or mouse CD14, MD2, and TLR4 and secreted embryonic alkaline phosphatase (SEAP) under control of a promoter with binding sites for NFκB and AP-1 transcription factors (InvivoGen cat. nos. hkb-htlr4 and hkb-mtlr4). Cells were cultured as directed by the supplier, with the exception that Glutamax (ThermoFisher cat. no. 10569010) was used in place of L-glutamine, and TrypLE Express (ThermoFisher cat. no. 12605010) was used to release adherent cells for each passage. BALB/c mouse RAW264.7 and human THP-1 cells (ATCC® cat. nos. TIB-71 and TIB-202) were cultured in DMEM (4.5 g/L D-Glucose with 2 mM L-glutamine, 1 mM sodium pyruvate, 100 U/ml penicillin and 100 μg/ml streptomycin) supplemented with 10% heat-inactivated FBS. THP-1 cells were exposed to phorbol-12-myristate-13-acetate (PMA, InvivoGen cat no. tlrl-pma), 5 ng/ml, for 48 h prior to treatment with TLR4 agonists. Bone marrow-derived dendritic cells (BMDCs) were generated using C57BL/6 mouse femurs following the exact method published by Lutz et al. ([29]) except that 5 rather than 20 ng/ml recombinant GM-CSF was used to differentiate the DC. Human peripheral blood […] (PBMCs) were prepared from venous blood of healthy volunteers that had been collected using sodium citrate as anti-coagulant, 20 ml of which was mixed with 15 ml calcium- and magnesium-free Hank’s Balanced Saline Solution (HBSS) and then laid over 6 ml Histopaque®-1077 (1.077 g/ml, Sigma-Aldrich cat no. 10771) for density gradient centrifugation. The buffy coat layer was collected by pipette, washed once in HBSS, once in serum-free RPMI-1640, and then the PBMCs were resuspended in RPMI-1640 supplemented with 100 U/ml penicillin, 100 µg/ml streptomycin, 1 mM Na-Pyruvate, 2 mM L-glutamine, 50 μM βME and 10% heat-inactivated, male AB human serum for culture.
as §1
(§4) Pharmacological profiles of the TLR4 reagents were generated by performing dose response curves in one of four formats. 1) Agonist potency and efficacy (EC50 and height of dose plateau, respectively) were measured by diluting TLR4 reagents successively in complete culture medium [DMEM or RPMI supplemented with fetal bovine serum (FBS) or RPMI supplemented with human serum, depending on cell-type]. Half-log step dilutions were performed in 96-well, U-bottom microtiter plates using a multichannel pipette to transfer and mix the suspensions, with fresh tips used for each dilution step. One-tenth (20 μl) volumes from wells of the dilution plate were then transferred to wells containing cells that had been plated in nine-tenth volumes (180 μl) of culture medium. […]

The target in assay [3] is T1, human TLR4. Briefly: Mixed agonist-antagonist dose curves at fixed ratio, human TLR4 HEK-Blue SEAP. Further details: host or cells: HEK-Blue (HEK293-derived) reporter cells. It is filed as cell-based. Here is the method: as §1, §2
The target in assay [4] is T1, human TLR4. Also on record: method as in PMID 1918061. The settings on record: cited from earlier work.
Assay [5] has as its target T1, human TLR4. Nature of the assay: Competitive vs non-competitive antagonist type: agonist diluted in a fixed concentration of inhibitor, human TLR4 HEK-Blue SEAP. The note with it: fixed ML3 3 μM, ML4A 3 μM or Lipid IVa 0.1 μM; agonist PHAD or 3D-6A-PHAD diluted from 10 μM. Also on record: host or cells: HEK-Blue (HEK293-derived) reporter cells. The assay is classed as cell-based. Here is the method: as §1
Pharmacological profiles of the TLR4 reagents were generated by performing dose response curves in one of four formats. 1) Agonist potency and efficacy (EC50 and height of dose plateau, respectively) were measured by diluting TLR4 reagents successively in complete culture medium [DMEM or RPMI supplemented with fetal bovine serum (FBS) or RPMI supplemented with human serum, depending on cell-type]. […] 2) Mixed agonist–antagonist potency and efficacy were measured by mixing a TLR4 agonist with a candidate antagonist at a fixed ratio and then performing half-log step dilutions before treating HEK reporter cells. […] 4) Inhibitory potency (IC50) was measured by diluting antagonists within a fixed concentration of a reference agonist, treating HEK reporter cells and performing SEAP assays as described.

The target of assay [6] is T2, mouse TLR4 (Mus musculus, UniProt Q9JHF9+Q9QUK6).
T2 sequence (Q9QUK6 26-835): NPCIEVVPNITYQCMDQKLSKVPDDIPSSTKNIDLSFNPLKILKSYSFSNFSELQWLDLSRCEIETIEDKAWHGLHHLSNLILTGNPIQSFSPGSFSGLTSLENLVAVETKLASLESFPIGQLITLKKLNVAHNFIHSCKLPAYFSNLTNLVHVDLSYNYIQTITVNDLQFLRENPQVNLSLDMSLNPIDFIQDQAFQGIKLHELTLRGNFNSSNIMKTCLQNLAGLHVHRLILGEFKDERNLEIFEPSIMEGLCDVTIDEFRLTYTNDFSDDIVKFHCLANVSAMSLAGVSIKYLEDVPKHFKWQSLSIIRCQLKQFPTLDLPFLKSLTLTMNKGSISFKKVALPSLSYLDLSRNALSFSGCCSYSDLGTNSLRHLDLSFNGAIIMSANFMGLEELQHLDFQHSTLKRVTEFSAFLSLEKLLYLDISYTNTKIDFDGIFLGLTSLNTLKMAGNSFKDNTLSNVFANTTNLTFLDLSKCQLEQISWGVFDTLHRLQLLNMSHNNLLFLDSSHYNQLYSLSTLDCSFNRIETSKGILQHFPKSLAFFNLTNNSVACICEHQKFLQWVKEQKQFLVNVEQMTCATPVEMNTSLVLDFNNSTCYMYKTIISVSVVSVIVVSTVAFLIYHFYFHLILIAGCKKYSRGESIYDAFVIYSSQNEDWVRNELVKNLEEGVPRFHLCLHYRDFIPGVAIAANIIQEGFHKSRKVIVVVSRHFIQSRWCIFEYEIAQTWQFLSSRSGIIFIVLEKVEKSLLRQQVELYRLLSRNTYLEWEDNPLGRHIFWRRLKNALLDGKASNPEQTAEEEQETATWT
T2 sequence (Q9JHF9 19-160): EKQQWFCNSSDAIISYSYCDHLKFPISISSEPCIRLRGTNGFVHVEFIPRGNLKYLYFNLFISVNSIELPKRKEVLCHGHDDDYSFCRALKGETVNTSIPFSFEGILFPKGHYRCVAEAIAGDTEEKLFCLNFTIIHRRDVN
Also on record: method as in PMID 1918061. The note with it: cited from earlier work.

For assay [7], the target named is T2, mouse TLR4. Nature of the assay: SEAP assay, agonist dose response in mouse TLR4 HEK-Blue reporter cells. It is filed as cell-based. Further details: host or cells: HEK-Blue (HEK293-derived) reporter cells. The note with it: for agonist profile: mouse TLR4 HEK-Blue reporter cells. On the procedure: as §3, §1, §4

T1 sequence (O00206 24-839): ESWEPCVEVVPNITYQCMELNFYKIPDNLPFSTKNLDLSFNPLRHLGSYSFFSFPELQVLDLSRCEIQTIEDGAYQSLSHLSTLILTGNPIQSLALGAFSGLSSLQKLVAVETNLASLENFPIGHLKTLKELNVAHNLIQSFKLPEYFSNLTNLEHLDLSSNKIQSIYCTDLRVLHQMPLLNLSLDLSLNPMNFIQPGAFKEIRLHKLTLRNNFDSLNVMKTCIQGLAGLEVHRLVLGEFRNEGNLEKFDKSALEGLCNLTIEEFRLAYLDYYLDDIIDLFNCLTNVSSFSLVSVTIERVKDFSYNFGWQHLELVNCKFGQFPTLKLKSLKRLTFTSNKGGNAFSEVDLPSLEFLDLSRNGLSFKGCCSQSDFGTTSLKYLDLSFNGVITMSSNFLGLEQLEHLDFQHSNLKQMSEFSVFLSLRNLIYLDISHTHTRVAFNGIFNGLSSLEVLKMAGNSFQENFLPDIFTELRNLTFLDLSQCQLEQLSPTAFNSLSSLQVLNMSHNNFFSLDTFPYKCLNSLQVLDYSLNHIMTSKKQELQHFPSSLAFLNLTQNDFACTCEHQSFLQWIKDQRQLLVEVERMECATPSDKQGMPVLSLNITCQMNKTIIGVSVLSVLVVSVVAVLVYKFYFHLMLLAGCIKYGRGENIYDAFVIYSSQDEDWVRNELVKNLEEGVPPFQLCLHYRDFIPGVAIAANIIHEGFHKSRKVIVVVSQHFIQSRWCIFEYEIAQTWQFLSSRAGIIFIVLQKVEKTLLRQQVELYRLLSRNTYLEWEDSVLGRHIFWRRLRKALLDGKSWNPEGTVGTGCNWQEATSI
T1 sequence (Q9Y6Y9 17-160 limits assumed): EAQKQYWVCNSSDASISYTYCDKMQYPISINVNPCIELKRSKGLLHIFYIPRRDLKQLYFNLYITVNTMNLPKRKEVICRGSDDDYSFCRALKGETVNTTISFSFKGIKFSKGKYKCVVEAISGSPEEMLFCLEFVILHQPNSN

Take `CCCCCCCCCCCCCCCC(=O)OC(CCCCCCCCCCC)CC(=O)NC1C(O)OC(COC2OC(CO)C(OP(=O)(O)O)C(OC(=O)CC(CCCCCCCCCCC)OC(=O)CCCCCCCCCCCCC)C2NC(=O)CC(CCCCCCCCCCC)OC(=O)CCCCCCCCCCC)C(O)C1O` (stereo not shown) [ML6]: the “inhibition of PHAD stimulation” value on human TLR4 [1] was “only ML3 and ML4A showed inhibitory potential”. In addition, at human TLR4 [2], the “agonist profile” value was “weaker agonists of human TLR4 than of mouse TLR4”.

`CCCCCCCCCCC[C@@H](O)CC(=O)N[C@H]1[C@H](OC[C@H]2O[C@H](OP(=O)(O)O)[C@H](NC(=O)C[C@H](O)CCCCCCCCCCC)[C@@H](OC(=O)C[C@H](O)CCCCCCCCCCC)[C@@H]2O)O[C@H](CO)[C@@H](OP(=O)(O)O)[C@@H]1OC(=O)C[C@H](O)CCCCCCCCCCC` [Lipid IVa, reference compound]: the “effect on agonist dose curve in fixed-ratio mixture” value at human TLR4 [3] (mixed with PHAD at 1:60 or 1:20 antagonist:agonist) is reported as “clearly flatted”; at human TLR4 [3] (mixed with PHAD at 1:180 antagonist:agonist), “trending to a flattened curve”. Besides, the “activity on human TLR4” value at human TLR4 [4] was “competitive antagonist of human TLR4”. In addition, on human TLR4 [1] (fixed 3D-6A-PHAD 300 nM), the “inhibition of 3D-6A-PHAD stimulation” value is reported as “functioned as inhibitors”. In addition, the half-maximal inhibitory concentration (IC50) on human TLR4 [1] (fixed PHAD 30 nM, 95% CI given) was 0.19 nM. Also, the “antagonist type” value on human TLR4 [5] is “competitive antagonist curve”. Further, on mouse TLR4 [6], the “activity on mouse TLR4” value is reported as “agonist of mouse TLR4”.

For `CCCCCCCCCCCCCC(=O)OC(CCCCCCCCCCC)CC(=O)OC1C(NC(=O)CC(CCCCCCCCCCC)OC(=O)CCCCCCCCCCC)C(OCC2OC(O)C(NC(=O)CC(O)CCCCCCCCCCC)C(O)C2O)OC(CO)C1OP(=O)(O)O` (stereo not shown) [ML5A], the “inhibition of PHAD stimulation” value at human TLR4 [1] was “only ML3 and ML4A showed inhibitory potential”. Further, the “agonist profile” value on human TLR4 [2] is given as “weaker agonists of human TLR4 than of mouse TLR4”.

For `CCCCCCCCCCCCCC(=O)O[C@H](CCCCCCCCCCC)CC(=O)O[C@@H]1[C@@H](NC(=O)C[C@@H](CCCCCCCCCCC)OC(=O)CCCCCCCCCCC)[C@H](OC[C@H]2O[C@H](OP(=O)(O)O)[C@H](NC(=O)C[C@H](O)CCCCCCCCCCC)[C@@H](OC(=O)C[C@H](O)CCCCCCCCCCC)[C@@H]2O)O[C@H](CO)[C@H]1OP(=O)(O)O` [Lipid A, reference compound], the “agonist profile” value on mouse TLR4 [7] and on human TLR4 [2] was “most potent of the agonists tested” each time. Further, the “ED50 (95% CI)” value on mouse TLR4 [7] (mouse Tlr4 reporter cells, stimulatory curve fit, Figure 3C) was 0.7 (0.5-0.9) ng/mL; at human TLR4 [2] (human TLR4 reporter cells, stimulatory curve fit, Figure 3C), 1.0 (0.8-1.1) ng/mL.

Take `CCCCCCCCCCCCCC(=O)O[C@H](CCCCCCCCCCC)CC(=O)N[C@H]1[C@H](OC[C@H]2OC(O)[C@H](NC(=O)C[C@H](O)CCCCCCCCCCC)[C@@H](OC(=O)C[C@H](O)CCCCCCCCCCC)[C@@H]2O)O[C@H](CO)[C@@H](OP(=O)(O)O)[C@@H]1OC(=O)C[C@@H](CCCCCCCCCCC)OC(=O)CCCCCCCCCCCCC` (stereo partly shown) [PHAD, phosphorylated hexa-acyl disaccharide, reference compound]: the “agonist profile” value on mouse TLR4 [7] was “weak yet full agonist of both mouse and human TLR4”. In addition, on human TLR4 [2], the “agonist profile” value was “weak yet full agonist of both mouse and human TLR4”; the half-maximal effective concentration (EC50) worked out at 30 nM.

As to `CCCCCCCCCCCCCC(=O)OC(CCCCCCCCCCC)CC(=O)NC1C(O)OC(COC2OC(CO)C(OP(=O)(O)O)C(OC(=O)CC(CCCCCCCCCCC)OC(=O)CCCCCCCCCCCCC)C2NC(=O)CC(CCCCCCCCCCC)OC(=O)CCCCCCCCCCCCC)C(O)C1O` (stereo not shown) [3D-6A-PHAD, reference compound], the half-maximal effective concentration (EC50) on human TLR4 [2] was 300 nM.

The values are drawn from publication PMC7596181 (Frontiers in Immunology, 2020).
